The record followed here is patent publication US9895349B2, “N-phenyl-carboxamide derivatives and the use thereof as medicaments for the treatment of hepatitis B” (priority 2013, dated 2018).

In data set [1] the test system is HBV. Description: Anti-HBV activity, HepG2.2.15 stable transfected cell line, HBV DNA from secreted virions by realtime PCR. The data set is classed as cell-based, Hepatitis B virus (HBV). Particulars: HepG2.2.15 cells, 6 days of treatment.
The subject of data set [2] is HBV. Description: Anti-HBV activity, HepG2.117 inducibly HBV producing cell line (Tet-off), intracellular HBV DNA by realtime PCR. The data set is classed as cell-based, Hepatitis B virus (HBV). Particulars: HepG2.117 cells, 3 days of treatment.
The subject of the next data set is HepG2 cells. Put plainly: Cytotoxicity in HepG2 cells, Resazurin assay. Particulars: read-out: HepG2 4 days CC50, 4 days incubation, Resazurin viability.
Data set [3] can be described thus: Cytotoxicity in HepG2 cells, Resazurin assay. The conditions noted are these: human. (In general: Resazurin is reduced to fluorescent resorufin, in cell work by metabolically active cells.)
Setting [4] is: Hepatitis B virus, HepG2.2.15, 144 h.
The mark [5] stands for this setting: Hepatitis B virus, HepG2.117, 72 h.

In general, EC50 refers to the midpoint of the concentration-response curve. A higher EC50 goes with a need for much substance. What is called CC50 is the concentration at which the toxic effect on the cells reaches its halfway point. With `Cc1cc(NC(=O)[C@H]2CCN(S(=O)(=O)C3CC3)C2)ccc1F` [Compound 5], the EC50 in the data set with HBV [1] was 9.1 µM; with HBV [2], 2 µM. In the data set with HepG2 cells, the CC50 was greater than 25 µM.

On to `Cc1cc(NC(=O)C2CCN(S(=O)(=O)C3CCS(=O)(=O)C3)C2)ccc1F` (mixture of isomers) [Compound 13], for which the EC50 with HBV [1] was 4.6 µM; in the data set with HBV [2], 3.4 µM. The CC50 with HepG2 cells was greater than 25 µM.

`Cc1cc(NC(=O)C2CCN(S(=O)(=O)C(C)CC(C)C)C2)ccc1F` (mixture of isomers) [Compound 17]: the EC50 in the data set on HBV [1] and in the data set on HBV [2] was 5.9 µM each time. Also, in the data set on HepG2 cells, the CC50 is greater than 25 µM.

Take `Cc1cc(NC(=O)C2(F)CCN(S(=O)(=O)NC(C)C)C2)ccc1F` (racemic) [Compound 35b, 3-fluoro-N-(4-fluoro-3-methyl-phenyl)-1-(isopropylsulfamoyl)pyrrolidine-3-carboxamide]: the EC50 in the data set on HBV [1] and in the data set with HBV [2] was greater than 5 µM throughout. Further, in the data set with HepG2 cells, the CC50 was greater than 25 µM.

Turning to `COCCS(=O)(=O)N1CC[C@H](C(=O)Nc2ccc(F)c(C)c2)C1` [Compound 14], the EC50 stood at 1.9 µM in the data set on HBV [1] and 1.5 µM in the data set with HBV [2]. In addition, in the data set with HepG2 cells, the CC50 is greater than 25 µM.

`Cc1cc(NC(=O)[C@H]2CCN(C(=O)OC3COC3)C2)ccc1F` [Compound 20]: the values for the EC50 with HBV [1] and in the data set on HBV [2] were 16.1 µM and 4 µM, respectively. Further, the CC50 with HepG2 cells is greater than 25 µM.

In the case of `CCC(CC)S(=O)(=O)N1CC[C@H](C(=O)Nc2ccc(F)c(C)c2)C1` [Compound 19], the EC50 in the data set on HBV [1] is 8.4 µM; with HBV [2] it was 2.9 µM. In addition, in the data set on HepG2 cells, the CC50 is greater than 25 µM.

Consider `Cc1cc(NC(=O)C2CN(S(=O)(=O)NC(C)C)C3CC23)ccc1F` (single isomer, unassigned) [Compound 36b, N-(4-fluoro-3-methyl-phenyl)-2-(isopropylsulfamoyl)-2-azabicyclo[3.1.0]hexane-4-carboxamide], for which the EC50 in the data set with HBV [1] was 0.46 µM; with HBV [2], 0.38 µM. In addition, in the data set with HepG2 cells, the CC50 was greater than 25 µM.

`Cc1cc(NC(=O)C2CCN(S(=O)(=O)C3CCCCC3O)C2)ccc1F` (mixture of isomers) [Compound 16]: the EC50 in the data set on HBV [1] was 3.5 µM; with HBV [2] it was 2.5 µM. The half-maximal cytotoxic concentration (CC50) in the data set with HepG2 cells is greater than 25 µM.

As to `Cc1cc(NC(=O)C2(C)CCN(S(=O)(=O)CC(C)C)C2)ccc1F` (racemic) [Compound 29b, N-(4-fluoro-3-methyl-phenyl)-1-isobutylsulfonyl-3-methyl-pyrrolidine-3-carboxamide], the EC50 in the data set with HBV [1] was 18.3 µM; in the data set with HBV [2] it was 6.9 µM. In the data set with HepG2 cells, the CC50 was greater than 25 µM.

As to `Cc1cc(NC(=O)[C@H]2CCN(S(=O)(=O)C3CCCCC3)C2)ccc1F` [Compound 23], the EC50 was 0.96 µM in the data set on HBV [1] and 1.4 µM with HBV [2]. In addition, the CC50 with HepG2 cells is greater than 25 µM.

In the case of `Cc1cc(NC(=O)[C@H]2CCN(S(=O)(=O)N3CC4(COC4)C3)C2)ccc1F` [Compound 49, (3S)—N-(4-fluoro-3-methyl-phenyl)-1-(6-oxa-2-azaspiro[3.3]heptan-2-ylsulfonyl)pyrrolidine-3-carboxamide], the EC50 in the data set on HBV [1] (setting [4]) stood at 1.49 µM; in the data set on HBV [2] (setting [5]) it was 0.95 µM. The CC50 at 4 days in data set [3] is greater than 25 µM.

As for `Cc1cc(NC(=O)C2(F)CCN(S(=O)(=O)N[C@H]3CCOC3)C2)ccc1F` (single isomer, unassigned) [Compound 42b], the figures for the EC50 in the data set on HBV [1] and in the data set with HBV [2] were 3.25 µM and 1.69 µM, respectively. In addition, in the data set on HepG2 cells, the CC50 was greater than 25 µM.

Turning to `CC[C@@H](C)NS(=O)(=O)N1CC[C@H](C(=O)Nc2ccc(F)c(F)c2)C1` [Compound 45, (3S)—N-(3,4-difluorophenyl)-1-[[(1R)-1-methylpropyl]sulfamoyl]pyrrolidine-3-carboxamide], the EC50 in the data set with HBV [1] (setting [4]) stood at 3.25 µM; with HBV [2] (setting [5]), 0.54 µM. In data set [3], this molecule registered a CC50 at 4 days greater than 25 µM.

On to `Cc1cc(NC(=O)C23CC2CN(S(=O)(=O)N[C@H]2CCOC2)C3)ccc1F` (stereo partly drawn) [Compound 43, N-(4-fluoro-3-methyl-phenyl)-3-[[(3S)-tetrahydrofuran-3-yl]sulfamoyl]-3-azabicyclo[3.1.0]hexane-1-carboxamide], for which the results for the EC50 in the data set on HBV [1] (setting [4]) and with HBV [2] (setting [5]) were 0.58 µM and 0.85 µM, respectively. This molecule also returned a CC50 at 4 days in data set [3] greater than 25 µM.

`Cc1cc(NC(=O)C2CN(S(=O)(=O)CC(C)C)c3ccccc32)ccc1F` (stereo not drawn) [Compound 28, N-(4-fluoro-3-methyl-phenyl)-1-isobutylsulfonyl-indoline-3-carboxamide]: the EC50 with HBV [1] (setting [4]) came to 2 µM; in the data set with HBV [2] (setting [5]), 3.9 µM. In data set [3], this molecule had a CC50 at 4 days greater than 25 µM.

Consider `Cc1cc(NC(=O)[C@H]2CCN(C(=O)OC(C)C)C2)ccc1F` [Compound 21], for which the values for the EC50 in the data set with HBV [1] and in the data set with HBV [2] were 5.4 µM and 2.7 µM, respectively. The CC50 in the data set with HepG2 cells is greater than 25 µM.

On to `Cc1cc(NC(=O)[C@H]2CCN(S(=O)(=O)NC3(CCO)COC3)C2)ccc1F` [Compound 47, (3S)—N-(4-fluoro-3-methyl-phenyl)-1-[[3-(2-hydroxyethyl)oxetan-3-yl]sulfamoyl]pyrrolidine-3-carboxamide], for which the EC50 in the data set on HBV [1] (setting [4]) is 0.065 µM; with HBV [2] (setting [5]) it was 0.091 µM. The same molecule had a CC50 at 4 days in data set [3] greater than 25 µM.

On to `COC(=O)NC[C@@H](C)NS(=O)(=O)N1CC[C@H](C(=O)Nc2ccc(F)c(C)c2)C1` [Compound 51, methyl N-[(2R)-2-[[(3S)-3-[(4-fluoro-3-methyl-phenyl)carbamoyl]pyrrolidin-1-yl]sulfonylamino]propyl]carbamate], for which the EC50 in the data set with HBV [1] (setting [4]) came out at 0.15 µM; in the data set with HBV [2] (setting [5]) it was 0.057 µM. In data set [3], the CC50 at 4 days was greater than 25 µM.

Take `Cc1cc(NC(=O)[C@H]2CCN(S(=O)(=O)C(C)C)C2)ccc1F` [Compound 7]: the EC50 in the data set on HBV [1] was determined as 13.5 µM; in the data set on HBV [2] it was 4.7 µM. Also, in the data set with HepG2 cells, the CC50 is greater than 25 µM.

With `Cc1cc(NC(=O)[C@H]2CCN(S(=O)(=O)NCC(C)C)C2)ccc1F` [Compound 31, (3S)—N-(4-fluoro-3-methyl-phenyl)-1-(isobutylsulfamoyl)pyrrolidine-3-carboxamide], the EC50 stood at 0.45 µM with HBV [1] (setting [4]) and 0.47 µM in the data set on HBV [2] (setting [5]). In data set [3], this molecule came in with a CC50 at 4 days greater than 25 µM.

As for `Cc1cc(NC(=O)C2CCN(S(=O)(=O)C3CCOC3)C2)ccc1F` (mixture of isomers) [Compound 12], the EC50 was 4.1 µM in the data set with HBV [1] and 2.3 µM in the data set with HBV [2]. Also, in the data set on HepG2 cells, the CC50 is greater than 25 µM.

Take `Cc1cc(NC(=O)[C@H]2CCN(S(=O)(=O)C3CCCC3)C2)ccc1F` [Compound 10, (3S)-1-cyclopentylsulfonyl-N-(4-fluoro-3-methyl-phenyl)pyrrolidine-3-carboxamide]: the values for the 50% effective concentration (EC50) in the data set with HBV [1] (setting [4]) and with HBV [2] (setting [5]) were 4.3 µM and 0.76 µM, respectively. For the same molecule, in data set [3], the CC50 at 4 days was determined as 22.9 µM.

As for `Cc1cc(NC(=O)[C@H]2CCN(S(=O)(=O)NC3(C)COC3)C2)ccc1F` [Compound 34, (3S)—N-(4-fluoro-3-methyl-phenyl)-1-[(3-methyloxetan-3-yl)sulfamoyl]pyrrolidine-3-carboxamide], the EC50 in the data set with HBV [1] (setting [4]) and in the data set with HBV [2] (setting [5]) was 0.11 µM throughout. For the same molecule, the CC50 at 4 days in data set [3] is greater than 25 µM.

Turning to `Cc1cc(NC(=O)C2CN(S(=O)(=O)NC(C)C)C3CC23)ccc1F` (single isomer, unassigned) [Compound 36a, N-(4-fluoro-3-methyl-phenyl)-2-(isopropylsulfamoyl)-2-azabicyclo[3.1.0]hexane-4-carboxamide], the 50% effective concentration (EC50) with HBV [1] worked out at 2.39 µM; with HBV [2], 2.65 µM. This molecule also showed a CC50 at 4 days in data set [3] greater than 25 µM.

`Cc1cc(NC(=O)[C@H]2CCN(S(C)(=O)=O)C2)ccc1F` [Compound 4]: the EC50 came to 16.4 µM in the data set with HBV [1] and 10.7 µM with HBV [2]. The CC50 in the data set with HepG2 cells is greater than 25 µM.

Take `Cc1cc(NC(=O)[C@H]2CCN(S(=O)(=O)NC3CCN(C)C3=O)C2)ccc1F` (stereo partly drawn) [Compound 48, (3S)—N-(4-fluoro-3-methyl-phenyl)-1-[(1-methyl-2-oxo-pyrrolidin-3-yl)sulfamoyl]pyrrolidine-3-carboxamide]: the EC50 in the data set on HBV [1] (setting [4]) is 1.37 µM; with HBV [2] (setting [5]), 0.57 µM. In data set [3], the CC50 at 4 days was greater than 25 µM.

Consider `COCC(C)S(=O)(=O)N1CCC(C(=O)Nc2ccc(F)c(C)c2)C1` (mixture of isomers) [Compound 18], for which the EC50 in the data set with HBV [1] was determined as 5.8 µM; in the data set with HBV [2] it was 5.3 µM. Further, the CC50 with HepG2 cells was greater than 25 µM.

In the case of `Cc1cc(NC(=O)C2CCN(S(=O)(=O)CC(C)C)C2)ccc1F` (stereo not drawn) [Compound 1, N-(4-fluoro-3-methyl-phenyl)-1-isobutylsulfonyl-pyrrolidine-3-carboxamide], the EC50 is 0.94 µM in the data set with HBV [1] (setting [4]) and 0.72 µM in the data set with HBV [2] (setting [5]). Moreover, the CC50 at 4 days in data set [3] is greater than 25 µM.

For the molecule `CCC(C)S(=O)(=O)N1CC[C@H](C(=O)Nc2ccc(F)c(C)c2)C1` (stereo partly drawn) [Compound 25, (3S)—N-(4-fluoro-3-methyl-phenyl)-1-sec-butylsulfonyl-pyrrolidine-3-carboxamide], the EC50 is 5.5 µM with HBV [1] (setting [4]) and 0.43 µM in the data set with HBV [2] (setting [5]). Also, the CC50 at 4 days in data set [3] is greater than 25 µM.

In the case of `Cc1cc(NC(=O)C2(C)CCN(S(=O)(=O)CC(C)C)C2)ccc1F` (racemic) [Compound 29a, N-(4-fluoro-3-methyl-phenyl)-1-isobutylsulfonyl-3-methyl-pyrrolidine-3-carboxamide], the EC50 with HBV [1] and in the data set on HBV [2] was greater than 25 µM in each case. In addition, in the data set on HepG2 cells, the CC50 is greater than 25 µM.

With `COC(=O)N1CC[C@H](C(=O)Nc2ccc(F)c(C)c2)C1` [Compound 22], the EC50 with HBV [1] was 13.6 µM; in the data set with HBV [2], 8.6 µM. Further, in the data set with HepG2 cells, the 50% cytotoxic concentration (CC50) was greater than 25 µM.

Take `Cc1cc(NC(=O)C2CCN(S(=O)(=O)C3CS(=O)(=O)CC3O)C2)ccc1F` (mixture of isomers) [Compound 15]: the EC50 was 12.5 µM in the data set with HBV [1] and 14.7 µM in the data set with HBV [2]. Moreover, the cytotoxic concentration (CC50) in the data set with HepG2 cells is greater than 25 µM.
